Experiment [1] deals with Vascular endothelial growth factor receptor 2 (Homo sapiens, UniProt P35968). It is filed as functional.
Experiment [2] deals with Prothrombin (Homo sapiens, UniProt P00734). Type of experiment: functional.
In experiment [3] the target is Sodium-dependent dopamine transporter (Homo sapiens, UniProt Q01959).
In experiment [4] the target is 3',5'-cyclic-AMP phosphodiesterase 4A (Homo sapiens, UniProt P27815). It is filed as functional.
The target in experiment [5] is T1, 5-hydroxytryptamine receptor 1A (Homo sapiens, UniProt P08908).
T1 sequence (P08908 whole entry): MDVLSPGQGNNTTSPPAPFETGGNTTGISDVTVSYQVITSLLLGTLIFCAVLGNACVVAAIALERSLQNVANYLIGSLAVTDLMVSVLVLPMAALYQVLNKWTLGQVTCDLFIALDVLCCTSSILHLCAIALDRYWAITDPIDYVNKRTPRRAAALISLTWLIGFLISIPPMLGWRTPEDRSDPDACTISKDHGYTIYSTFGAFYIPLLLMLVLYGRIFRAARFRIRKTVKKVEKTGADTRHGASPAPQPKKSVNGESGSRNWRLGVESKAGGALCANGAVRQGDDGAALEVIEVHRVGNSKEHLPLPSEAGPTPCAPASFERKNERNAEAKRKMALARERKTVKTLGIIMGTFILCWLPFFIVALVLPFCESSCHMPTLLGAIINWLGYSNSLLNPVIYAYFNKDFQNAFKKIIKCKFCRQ

Experiment [6] has as its target T2, Endothelin-1 receptor (Homo sapiens, UniProt P25101).
T2 sequence (P25101 whole entry): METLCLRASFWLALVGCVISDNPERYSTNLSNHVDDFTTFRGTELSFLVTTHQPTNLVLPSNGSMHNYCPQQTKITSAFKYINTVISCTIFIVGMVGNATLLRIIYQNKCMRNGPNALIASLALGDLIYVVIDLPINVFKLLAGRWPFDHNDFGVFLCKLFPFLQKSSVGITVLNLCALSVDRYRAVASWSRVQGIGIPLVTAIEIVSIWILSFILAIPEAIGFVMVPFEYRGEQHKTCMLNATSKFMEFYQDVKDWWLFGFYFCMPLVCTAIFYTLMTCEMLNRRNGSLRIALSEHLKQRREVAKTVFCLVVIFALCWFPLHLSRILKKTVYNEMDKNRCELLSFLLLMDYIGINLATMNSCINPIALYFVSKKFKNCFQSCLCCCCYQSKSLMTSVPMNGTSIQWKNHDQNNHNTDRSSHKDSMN

Experiment [7] addresses Prostaglandin G/H synthase 1 (Homo sapiens, UniProt P23219). Type of experiment: functional.
Experiment [8] concerns the target T3, Alpha-1A adrenergic receptor (Homo sapiens, UniProt P35348).
T3 sequence (P35348 whole entry): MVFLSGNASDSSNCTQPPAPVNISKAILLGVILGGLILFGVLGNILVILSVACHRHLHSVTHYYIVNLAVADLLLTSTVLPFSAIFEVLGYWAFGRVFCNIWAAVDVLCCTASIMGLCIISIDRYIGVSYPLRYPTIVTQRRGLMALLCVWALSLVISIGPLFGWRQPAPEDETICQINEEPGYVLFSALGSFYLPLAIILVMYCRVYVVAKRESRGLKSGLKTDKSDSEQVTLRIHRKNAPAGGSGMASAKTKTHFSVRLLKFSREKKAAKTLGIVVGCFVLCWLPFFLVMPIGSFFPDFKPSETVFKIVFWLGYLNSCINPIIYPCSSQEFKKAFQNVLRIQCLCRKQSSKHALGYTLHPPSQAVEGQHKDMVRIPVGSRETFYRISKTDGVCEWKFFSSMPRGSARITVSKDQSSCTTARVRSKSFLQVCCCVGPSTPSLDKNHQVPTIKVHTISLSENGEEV

For experiment [9], the target named is T4, Thromboxane A2 receptor (Homo sapiens, UniProt P21731).
T4 sequence (P21731 whole entry): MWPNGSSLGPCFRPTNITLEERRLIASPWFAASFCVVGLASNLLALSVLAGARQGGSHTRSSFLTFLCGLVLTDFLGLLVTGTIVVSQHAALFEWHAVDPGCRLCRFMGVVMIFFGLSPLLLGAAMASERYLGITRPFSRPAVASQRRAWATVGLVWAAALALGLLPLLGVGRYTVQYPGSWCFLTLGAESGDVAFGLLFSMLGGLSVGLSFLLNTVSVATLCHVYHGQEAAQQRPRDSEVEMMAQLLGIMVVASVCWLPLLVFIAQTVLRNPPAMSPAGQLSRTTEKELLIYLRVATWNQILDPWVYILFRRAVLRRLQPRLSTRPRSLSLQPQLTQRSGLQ

Experiment [10] addresses T5, Gastrin/cholecystokinin type B receptor (Homo sapiens, UniProt P32239).
T5 sequence (P32239 whole entry): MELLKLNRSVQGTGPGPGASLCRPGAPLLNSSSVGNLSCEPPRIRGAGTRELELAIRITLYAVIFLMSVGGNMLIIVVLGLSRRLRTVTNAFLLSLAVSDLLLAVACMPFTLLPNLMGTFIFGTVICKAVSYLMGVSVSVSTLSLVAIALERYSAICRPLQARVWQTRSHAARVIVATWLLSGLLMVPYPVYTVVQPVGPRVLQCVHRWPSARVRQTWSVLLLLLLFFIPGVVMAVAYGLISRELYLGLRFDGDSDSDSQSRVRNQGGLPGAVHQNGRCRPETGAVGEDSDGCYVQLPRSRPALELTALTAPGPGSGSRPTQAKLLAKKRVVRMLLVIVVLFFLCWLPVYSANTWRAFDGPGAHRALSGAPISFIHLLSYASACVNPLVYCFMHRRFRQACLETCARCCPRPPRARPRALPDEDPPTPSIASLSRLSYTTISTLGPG

A value given as a limit tells only on which side of the number the result lay.
Also: assay procedure not described here.

Chain of Vascular endothelial growth factor receptor 2 (P35968 whole entry): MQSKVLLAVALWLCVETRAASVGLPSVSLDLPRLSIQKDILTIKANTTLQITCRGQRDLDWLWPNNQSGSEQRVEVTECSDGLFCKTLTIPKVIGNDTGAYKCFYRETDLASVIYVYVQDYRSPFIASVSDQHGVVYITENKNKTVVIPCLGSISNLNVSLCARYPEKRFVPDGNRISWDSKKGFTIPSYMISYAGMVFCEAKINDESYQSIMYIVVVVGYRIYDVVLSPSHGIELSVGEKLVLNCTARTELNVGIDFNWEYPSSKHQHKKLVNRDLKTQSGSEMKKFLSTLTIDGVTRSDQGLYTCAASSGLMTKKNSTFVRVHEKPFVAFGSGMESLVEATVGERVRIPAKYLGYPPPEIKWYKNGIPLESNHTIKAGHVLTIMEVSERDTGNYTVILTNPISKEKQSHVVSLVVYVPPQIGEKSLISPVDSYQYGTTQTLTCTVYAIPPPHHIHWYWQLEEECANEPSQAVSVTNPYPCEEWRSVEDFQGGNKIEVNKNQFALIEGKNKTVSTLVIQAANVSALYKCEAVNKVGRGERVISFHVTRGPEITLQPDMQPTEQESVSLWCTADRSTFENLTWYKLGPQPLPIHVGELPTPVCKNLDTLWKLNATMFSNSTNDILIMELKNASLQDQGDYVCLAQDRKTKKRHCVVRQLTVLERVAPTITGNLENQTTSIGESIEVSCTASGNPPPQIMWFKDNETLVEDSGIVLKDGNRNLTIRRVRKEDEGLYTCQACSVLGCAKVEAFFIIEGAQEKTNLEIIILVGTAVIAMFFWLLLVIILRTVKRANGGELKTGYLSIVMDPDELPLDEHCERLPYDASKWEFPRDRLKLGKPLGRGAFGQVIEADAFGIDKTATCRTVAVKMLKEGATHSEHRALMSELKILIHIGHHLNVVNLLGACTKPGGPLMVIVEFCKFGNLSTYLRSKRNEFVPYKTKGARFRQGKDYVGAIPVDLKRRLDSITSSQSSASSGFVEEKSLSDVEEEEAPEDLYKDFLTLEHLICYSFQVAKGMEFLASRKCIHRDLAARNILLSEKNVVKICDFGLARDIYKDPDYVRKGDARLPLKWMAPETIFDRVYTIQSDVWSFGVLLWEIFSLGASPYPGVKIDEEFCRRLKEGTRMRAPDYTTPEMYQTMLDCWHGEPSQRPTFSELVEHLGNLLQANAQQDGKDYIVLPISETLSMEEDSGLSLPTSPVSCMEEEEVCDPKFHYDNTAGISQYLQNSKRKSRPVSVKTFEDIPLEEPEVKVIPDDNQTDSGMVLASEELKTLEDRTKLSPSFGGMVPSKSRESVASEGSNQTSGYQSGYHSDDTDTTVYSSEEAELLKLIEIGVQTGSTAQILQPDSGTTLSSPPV
Chain of Prostaglandin G/H synthase 1 (P23219 whole entry): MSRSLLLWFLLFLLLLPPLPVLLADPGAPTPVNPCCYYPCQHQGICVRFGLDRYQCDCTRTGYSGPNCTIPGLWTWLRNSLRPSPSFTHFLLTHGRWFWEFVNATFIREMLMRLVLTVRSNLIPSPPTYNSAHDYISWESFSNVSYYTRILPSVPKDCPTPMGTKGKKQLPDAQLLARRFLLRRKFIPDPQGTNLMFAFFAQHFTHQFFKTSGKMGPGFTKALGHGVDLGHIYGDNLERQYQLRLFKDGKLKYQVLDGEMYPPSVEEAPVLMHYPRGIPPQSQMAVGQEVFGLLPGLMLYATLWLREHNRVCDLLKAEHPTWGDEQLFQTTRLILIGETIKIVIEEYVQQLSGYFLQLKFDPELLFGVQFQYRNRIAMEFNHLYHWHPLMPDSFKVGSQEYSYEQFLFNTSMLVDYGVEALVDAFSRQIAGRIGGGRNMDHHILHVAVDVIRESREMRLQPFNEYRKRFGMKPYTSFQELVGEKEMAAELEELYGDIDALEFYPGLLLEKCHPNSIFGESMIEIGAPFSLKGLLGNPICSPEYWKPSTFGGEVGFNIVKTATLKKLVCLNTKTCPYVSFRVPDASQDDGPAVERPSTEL
Chain of Sodium-dependent dopamine transporter (Q01959 whole entry): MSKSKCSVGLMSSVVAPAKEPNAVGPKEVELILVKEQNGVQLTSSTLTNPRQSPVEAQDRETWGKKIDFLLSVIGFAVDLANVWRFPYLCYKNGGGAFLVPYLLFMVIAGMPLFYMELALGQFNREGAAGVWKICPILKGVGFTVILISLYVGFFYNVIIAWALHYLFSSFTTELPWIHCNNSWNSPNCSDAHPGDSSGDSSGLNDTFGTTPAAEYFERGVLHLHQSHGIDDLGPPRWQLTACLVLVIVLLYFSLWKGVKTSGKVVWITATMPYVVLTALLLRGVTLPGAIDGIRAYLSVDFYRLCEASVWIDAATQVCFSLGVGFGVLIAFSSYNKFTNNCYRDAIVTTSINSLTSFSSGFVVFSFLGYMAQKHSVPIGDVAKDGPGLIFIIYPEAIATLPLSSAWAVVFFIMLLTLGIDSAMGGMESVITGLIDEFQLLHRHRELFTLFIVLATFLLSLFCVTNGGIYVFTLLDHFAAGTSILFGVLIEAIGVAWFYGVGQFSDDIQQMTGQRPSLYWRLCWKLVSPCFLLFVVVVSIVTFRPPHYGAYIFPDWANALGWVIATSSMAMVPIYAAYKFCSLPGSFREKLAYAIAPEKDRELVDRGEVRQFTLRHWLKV
Chain of 3',5'-cyclic-AMP phosphodiesterase 4A (P27815 whole entry): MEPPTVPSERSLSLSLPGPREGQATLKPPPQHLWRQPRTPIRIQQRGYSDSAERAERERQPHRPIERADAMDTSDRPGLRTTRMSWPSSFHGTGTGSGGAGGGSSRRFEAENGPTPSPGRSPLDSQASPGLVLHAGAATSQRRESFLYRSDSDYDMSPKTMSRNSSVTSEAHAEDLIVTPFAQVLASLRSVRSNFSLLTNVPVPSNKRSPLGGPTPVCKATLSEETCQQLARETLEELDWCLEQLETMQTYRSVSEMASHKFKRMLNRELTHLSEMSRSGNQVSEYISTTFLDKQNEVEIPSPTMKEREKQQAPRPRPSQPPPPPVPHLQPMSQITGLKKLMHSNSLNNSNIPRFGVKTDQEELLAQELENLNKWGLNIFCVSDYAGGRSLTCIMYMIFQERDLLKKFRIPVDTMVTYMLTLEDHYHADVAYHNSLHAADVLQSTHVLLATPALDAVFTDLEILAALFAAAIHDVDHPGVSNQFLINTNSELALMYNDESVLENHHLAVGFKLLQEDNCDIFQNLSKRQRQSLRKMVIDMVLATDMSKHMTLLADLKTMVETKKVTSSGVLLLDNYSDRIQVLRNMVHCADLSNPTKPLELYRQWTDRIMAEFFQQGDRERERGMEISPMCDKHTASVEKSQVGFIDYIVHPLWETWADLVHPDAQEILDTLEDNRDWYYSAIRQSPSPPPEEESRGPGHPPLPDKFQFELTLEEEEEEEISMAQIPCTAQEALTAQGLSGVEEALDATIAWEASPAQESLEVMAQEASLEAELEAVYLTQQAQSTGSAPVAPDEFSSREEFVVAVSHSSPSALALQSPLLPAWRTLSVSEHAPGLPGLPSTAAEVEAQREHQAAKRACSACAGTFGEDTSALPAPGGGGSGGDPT

As for `CC(=O)Nc1ccc(O)cc1` [ACETAMINOPHEN], the AC50 in [1], in experiment [2], in [3], in [4], in experiment [5] and in experiment [6] was > 30 µM in each case.
For the compound `CC[C@H]1OC(=O)[C@H](C)[C@@H](O[C@H]2C[C@@](C)(OC)[C@@H](O)[C@H](C)O2)[C@H](C)[C@@H](O[C@@H]2O[C@H](C)C[C@H](N(C)C)[C@H]2O)[C@](C)(O)C[C@@H](C)CN(C)[C@H](C)[C@@H](O)[C@]1(C)O` [AZITHROMYCIN], the concentration at half-maximal activity (AC50) in [2] is > 30 µM; in experiment [7], > 30 µM; in experiment [3], > 30 µM; in [4] it was > 30 µM; in experiment [5] it was > 30 µM; in experiment [8], > 10 µM. In addition, the concentration at half-maximal activity (AC50) in experiment [6], in experiment [9] and in [10] was > 30 µM throughout.
Consider `NCC(CC(=O)O)c1ccc(Cl)cc1` (configuration not stated) [BACLOFEN], for which the AC50 in experiment [1], in experiment [2], in [7], in experiment [3], in experiment [4] and in [5] was > 30 µM throughout. Further, the AC50 was > 10 µM in experiment [8], > 30 µM in experiment [6], > 30 µM in experiment [9] and > 30 µM in experiment [10].
With `CC(C)C[C@H]1C(=O)N2CCC[C@H]2[C@]2(O)O[C@](NC(=O)[C@@H]3C=C4c5cccc6[nH]c(Br)c(c56)C[C@H]4N(C)C3)(C(C)C)C(=O)N12` [BROMOCRIPTINE], the AC50 is > 30 µM in experiment [1]; > 30 µM in experiment [2]; 2.49 µM in experiment [7]; > 30 µM in experiment [3]; > 30 µM in experiment [4]; 0.003 µM in experiment [5]. Moreover, the AC50 is 0.197 µM in experiment [8], > 30 µM in [6], > 30 µM in experiment [9] and > 30 µM in experiment [10].
For `COCc1c(C(C)C)nc(C(C)C)c(/C=C/[C@@H](O)C[C@@H](O)CC(=O)O)c1-c1ccc(F)cc1` [CERIVASTATIN], the AC50 is > 30 µM in [1]; > 30 µM in [2]; > 30 µM in [7]; > 30 µM in [3]; 21.5 µM in [4]; > 30 µM in experiment [5].
Consider `C[C@]12CC[C@@H]3c4ccc(O)cc4CC[C@H]3[C@@H]1C[C@@H](O)[C@@H]2O` [ESTRIOL], for which the AC50 in [1] is > 30 µM; in experiment [2], > 30 µM; in experiment [7], > 30 µM; in experiment [3] it was 28.7 µM; in experiment [4] it was > 30 µM; in experiment [5], > 30 µM.
Consider `CCC1=C(C)CN(C(=O)NCCc2ccc(S(=O)(=O)NC(=O)N[C@H]3CC[C@H](C)CC3)cc2)C1=O` [GLIMEPIRIDE], for which the AC50 in experiment [1], in [2], in experiment [7], in experiment [3], in experiment [4] and in experiment [5] was > 30 µM in each case.
In the case of `Cc1cccc(Nc2ccccc2C(=O)O)c1C` [MEFENAMIC ACID], the half-maximal activity concentration (AC50) in experiment [1] was > 30 µM; in experiment [2], > 30 µM; in experiment [7] it was 0.0343 µM; in experiment [3] it was > 30 µM; in experiment [4], > 30 µM; in [5] it was > 30 µM. Also, the concentration at half-maximal activity (AC50) in experiment [8] and in experiment [9] was > 10 µM throughout.
As for `CC(C)(S)[C@@H](N)C(=O)O` [PENICILLAMINE], the AC50 in experiment [1], in experiment [2], in experiment [3], in [4] and in [5] was > 30 µM each time.
As to `CCCN1C[C@H](CSC)C[C@@H]2c3cccc4[nH]cc(c34)C[C@H]21` [PERGOLIDE], the AC50 is 1.78 µM in experiment [8], > 30 µM in experiment [6], > 30 µM in experiment [9] and > 30 µM in experiment [10].
On to `COc1cc(NC(C)CCCN)c2ncccc2c1` (configuration not stated) [PRIMAQUINE], for which the half-maximal activity concentration (AC50) in experiment [1] was > 30 µM; in [2] it was > 30 µM; in [4], 16.2 µM; in [6] it was > 30 µM; in experiment [9], > 30 µM; in [10], > 30 µM.
For the compound `COc1ccccc1OCC(O)CN1CCN(CC(=O)Nc2c(C)cccc2C)CC1` (configuration not stated) [RANOLAZINE], the AC50 in [8] was 13 µM; in experiment [6] it was > 30 µM; in experiment [9] it was > 30 µM; in experiment [10], > 30 µM.
`Cc1c(C(=O)NN2CCCCC2)nn(-c2ccc(Cl)cc2Cl)c1-c1ccc(Cl)cc1` [RIMONABANT]: the AC50 in [8] was > 10 µM; in experiment [6], > 30 µM; in [9], 18.6 µM; in experiment [10], 29.6 µM.
In the case of `CS(=O)(=O)c1ccc(C2=C(c3ccccc3)C(=O)OC2)cc1` [ROFECOXIB], the AC50 in [1] was > 30 µM; in experiment [2] it was > 30 µM; in experiment [3], > 30 µM; in [4], > 30 µM; in experiment [5], > 30 µM; in [8], > 10 µM. Further, the AC50 in experiment [6], in experiment [9] and in [10] was > 30 µM in each case.
Take `CO[C@H]1C[C@@H]2CC[C@@H](C)[C@@](O)(O2)C(=O)C(=O)N2CCCC[C@H]2C(=O)O[C@H]([C@H](C)C[C@@H]2CC[C@@H](O)[C@H](OC)C2)CC(=O)[C@H](C)/C=C(\C)[C@@H](O)[C@@H](OC)C(=O)[C@H](C)C[C@H](C)/C=C/C=C/C=C/1C` [SIROLIMUS]: the AC50 was > 30 µM in experiment [1]; > 30 µM in experiment [2]; 26.6 µM in experiment [7]; > 30 µM in [3]; > 30 µM in experiment [4]; > 30 µM in [5]. Also, the AC50 in [8] is 0.156 µM; in experiment [6], > 30 µM; in [9] it was > 30 µM; in experiment [10], > 30 µM.
With `Cn1nnc2c(C(N)=O)ncn2c1=O` [TEMOZOLOMIDE], the AC50 in [8] was > 10 µM; in experiment [6], > 30 µM; in [9], > 30 µM; in [10], > 30 µM.
In the case of `Clc1ccc2nsnc2c1NC1=NCCN1` [TIZANIDINE], the AC50 was 3.9 µM in experiment [8], > 30 µM in [6], > 30 µM in experiment [9] and > 30 µM in [10].
`CCCCCCOc1nsnc1C1=CCCN(C)C1` [XANOMELINE]: the AC50 in experiment [1] was > 30 µM; in experiment [2], > 30 µM; in experiment [7], > 30 µM; in experiment [3], 3.37 µM; in [4] it was 28.5 µM; in experiment [5] it was 0.243 µM.

The values are drawn from ChEMBL document CHEMBL5291721, “A preclinical secondary pharmacology resource illuminates target-adverse drug reaction associations of marketed drugs” (Nat Commun, 2023).
